From article PMC11671526, “β-caryophyllene sensitizes hepatocellular carcinoma cells to chemotherapeutics and inhibits cell malignancy through targeting MAPK signaling pathway” (Frontiers in Pharmacology, 2024)

Test system: HepG2 cells
Experiment: RNA-seq transcriptome analysis of differentially expressed genes
Format: cell-based, human
Description: The quality and concentration of RNA were examined by MOPS RNA electrophoresis and Eppendorf BioSpectrometer. The transcriptome analysis was performed by BGI-Wuhan China. The RNA-seq dataset of this study is accessible in the Gene Expression Omnibus (GEO) with an access number of GSE276099. The sequence library for each sample was prepared using the BGISEQ-500 platform with a 50-bp single-end (SE50) format. […]2.2.1) was used to align the clean reads to the reference genome and alignment of the clean reads to the reference genes was carried out using Bowtie2 (v2.4.5) ([Langmead and Salzberg, 2012]; [Kim et al., 2015]). Gene expression levels were calculated by RSEM (v1.3.1) ([Li and Dewey, 2011]). Analysis of differential gene expression was performed using edgeR in the Bioconductor software package ([Robinson et al., 2010]). Using a standard protocol, the RNA samples were also examined by reverse transcription and quantitative polymerase chain reaction (RT-qPCR). In brief, for reverse transcription, total RNA (1 μg) and gDNA wiper Mix were incubated at 42°C for 2 min. The samples were immediately incubated with a master mix containing 10 pmol/μL of poly (dT) primers at 37°C for 15 min and 85°C for 5 s. To detect the expression of specific genes by qPCR analysis, gene-specific primers (shown in Supplementary Table S1) were mixed with the ChamQ Universal SYBER qPCR Master Mix and the reaction was conducted using the Roche Lightcycler 480. The GAPDH value was used to normalize the results of each gene. The RNA-seq data of BCP-treated HepG2 cells were screened for DEGs. Gene symbols were turned into Enterz ID using the org.Hs.eg.db Bio-conductor R package. The cluster profiler (v4.6.2) package was used to perform the Kyoto Encyclopedia of Genes and Genomes (KEGG) and Gene Ontology (GO) enrichment analyses ([Wu et al., 2021]). Following the Transcript per million (TPM) data of the dataset, the line chart, and heatmap were plotted using ggplot2 and pheatmap R packages, respectively.

[1] = HepG2, 150 µM BCP 24 h vs ethanol, RNA-seq DEG
[2] = HepG2, 150 µM BCP 24 h vs ethanol, FDR ≤ 0.05, 1.5-fold change

## C=C1CC/C=C(\C)CC[C@@H]2[C@@H]1CC2(C)C [BCP, β-caryophyllene]
BCP vs control HepG2, RNA-seq
  ODAD2 change: Up
  ODAD2 logFC: 0.6018
  PADI1 change: Down
  PADI1 logFC: -0.911
  PAN2 change: Up
  PAN2 logFC: 0.6394
  PAPLN change: Up
  PAPLN logFC: 0.648
  PARP10 change: Up
  PARP10 logFC: 0.961
  PDZK1IP1 change: Up
  PDZK1IP1 logFC: 0.6396
  PERM1 change: Up
  PERM1 logFC: 0.9379
  PGF change: Down
  PGF logFC: -1.184
  PGGHG change: Up
  PGGHG logFC: 0.7209
  PID1 change: Down
  PID1 logFC: -0.6654
  PLCD4 change: Down
  PLCD4 logFC: -1.595
  PLCH1 change: Up
  PLCH1 logFC: 1.418
  PLEKHF1 change: Up
  PLEKHF1 logFC: 0.8594
  PLEKHN1 change: Up
  PLEKHN1 logFC: 0.6105
  POU2F3 change: Down
  POU2F3 logFC: -1.5108
  PRDM12 change: Down
  PRDM12 logFC: -1.2196
  PRIMPOL change: Up
  PRIMPOL logFC: 0.639
  PROB1 change: Down
  PROB1 logFC: -0.6611
  PRSS56 change: Up
  PRSS56 logFC: 0.9346
  PTP4A3 change: Up
  PTP4A3 logFC: 0.9798
  PTPRR change: Up
  PTPRR logFC: 1.308
  RAET1E change: Down
  RAET1E logFC: -0.794
  RAET1L change: Down
  RAET1L logFC: -0.9044
  RASD2 change: Down
  RASD2 logFC: -0.5906
  RASL11A change: Down
  RASL11A logFC: -0.8207
  RHBDL3 change: Down
  RHBDL3 logFC: -0.6105
  S1PR1 change: Down
  S1PR1 logFC: -1.034
  SH2D5 change: Up
  SH2D5 logFC: 0.5827
  SHC3 change: Down
  SHC3 logFC: -0.7485
  SLC4A11 change: Down
  SLC4A11 logFC: -0.655
  SLC6A12 change: Down
  SLC6A12 logFC: -3.144
  SLC6A16 change: Down
  SLC6A16 logFC: -0.7923
  SLC12A3 change: Down
  SLC12A3 logFC: -0.7354
  SLC25A41 change: Down
  SLC25A41 logFC: -0.9215
  SMC1B change: Up
  SMC1B logFC: 1.162
  SMPDL3A change: Down
  SMPDL3A logFC: -0.7314
  SORBS1 change: Up
  SORBS1 logFC: 0.6679
  SP6 change: Down
  SP6 logFC: -0.8849
  ST3GAL5 change: Down
  ST3GAL5 logFC: -0.6552
  STAC change: Down
  STAC logFC: -0.9497
  STXBP6 change: Down
  STXBP6 logFC: -0.6612
  SYTL4 change: Down
  SYTL4 logFC: -1.384
  TCF7 change: Up
  TCF7 logFC: 0.7392
  TESPA1 change: Down
  TESPA1 logFC: -0.7534
  TEX9 change: Up
  TEX9 logFC: 0.7307
  TGFA change: Down
  TGFA logFC: -0.6404
  THRB change: Down
  THRB logFC: -0.6974
  TIAF1 change: Down
  TIAF1 logFC: -0.9875
  TLN2 change: Up
  TLN2 logFC: 0.6813
  TMEM17 change: Up
  TMEM17 logFC: 0.6031
  TMEM121 change: Down
  TMEM121 logFC: -0.7343
  TMEM158 change: Down
  TMEM158 logFC: -0.7403
  TMEM213 change: Down
  TMEM213 logFC: -1.017
  TMIE change: Up
  TMIE logFC: 1.064
  TMPPE change: Down
  TMPPE logFC: -0.812
  TNFRSF14 change: Up
  TNFRSF14 logFC: 1.214
  TOX change: Up
  TOX logFC: 0.9011
  TRABD2B change: Up
  TRABD2B logFC: 0.6053
  TSHZ2 change: Up
  TSHZ2 logFC: 0.586
  TSPAN18 change: Up
  TSPAN18 logFC: 0.6055
  TTC21A change: Up
  TTC21A logFC: 1.034
  TTC30B change: Up
  TTC30B logFC: 1.0891
  TYW1B change: Down
  TYW1B logFC: -0.7579
  VEPH1 change: Up
  VEPH1 logFC: 0.6882
  WASF3 change: Down
  WASF3 logFC: -1.027
  WDR86 change: Down
  WDR86 logFC: -0.8076
  ZNF165 change: Up
  ZNF165 logFC: 0.918
  ZNF284 change: Down
  ZNF284 logFC: -0.7229
  ZNF341 change: Down
  ZNF341 logFC: -0.6282
[1]
  ADORA2A expression change (BCP_treatment): Down
  ADRA2C expression change (BCP_treatment): Down
  ALYREF expression change (BCP_treatment): Down
  ANK1 expression change (BCP_treatment): Down
  ANKFN1 expression change (BCP_treatment): Down
  ARTN expression change (BCP_treatment): markedly downregulated and Down
  B3GNT4 expression change (BCP_treatment): Down
  BICDL1 expression change (BCP_treatment): Down
  BOC expression change (BCP_treatment): Down
  BOLA2B expression change (BCP_treatment): Down
  CA5B expression change (BCP_treatment): Down
  CACNA1E expression change (BCP_treatment): markedly downregulated and Down
  CAMK2N2 expression change (BCP_treatment): Down
  CCDC86 expression change (BCP_treatment): Down
  CCL26 expression change (BCP_treatment): Down
  CHST6 expression change (BCP_treatment): Down
  CLIP2 expression change (BCP_treatment): Down
  CYP26B1 expression change (BCP_treatment): Down
  DPF1 expression change (BCP_treatment): Down
  EN2 expression change (BCP_treatment): Down
  FAM222A expression change (BCP_treatment): Down
  FBXL22 expression change (BCP_treatment): Down
  FBXO27 expression change (BCP_treatment): Down
  FBXO44 expression change (BCP_treatment): Down
  FRMD3 expression change (BCP_treatment): Down
  FUT3 expression change (BCP_treatment): Down
  GBP2 expression change (BCP_treatment): Down
  GNAZ expression change (BCP_treatment): Down
  H1-2 expression change (BCP_treatment): Down
  H2BC11 expression change (BCP_treatment): Down
  H2BC12 expression change (BCP_treatment): Down
  H3C6 expression change (BCP_treatment): Down
  H4C8 expression change (BCP_treatment): Down
  HPDL expression change (BCP_treatment): Down
  ISYNA1 expression change (BCP_treatment): Down
  KCNH3 expression change (BCP_treatment): Down
  KHDC1 expression change (BCP_treatment): Down
  LYSMD4 expression change (BCP_treatment): Down
  MAFA expression change (BCP_treatment): Down
  MAGEB17 expression change (BCP_treatment): Down
  MAP1A expression change (BCP_treatment): Down
  MNX1 expression change (BCP_treatment): Down
  MYB expression change (BCP_treatment): Down
  MYEOV expression change (BCP_treatment): Down
  NES expression change (BCP_treatment): Down
  NR6A1 expression change (BCP_treatment): Down
  PAQR5 expression change (BCP_treatment): Down
  PGF expression change (BCP_treatment): markedly downregulated and Down
  PI3 expression change (BCP_treatment): Down
  RAPGEF3 expression change (BCP_treatment): Down
  RASD2 expression change (BCP_treatment): Down
  RHBDL3 expression change (BCP_treatment): Down
  S100A3 expression change (BCP_treatment): Down
  SCIN expression change (BCP_treatment): Down
  SHC3 expression change (BCP_treatment): Down
  SLC4A11 expression change (BCP_treatment): Down
  SP6 expression change (BCP_treatment): Down
  STXBP6 expression change (BCP_treatment): Down
  SYN3 expression change (BCP_treatment): Down
  TMEM120B expression change (BCP_treatment): Down
  TMEM158 expression change (BCP_treatment): Down
  TNFSF15 expression change (BCP_treatment): Down
  TRNP1 expression change (BCP_treatment): Down
  VAMP1 expression change (BCP_treatment): Down
  ZBED6CL expression change (BCP_treatment): Down
  ZNF284 expression change (BCP_treatment): Down
  ZNF341 expression change (BCP_treatment): Down
[2]
  number of downregulated genes: 245
  number of upregulated genes: 188
  total number of DEGs: 433
Gene ABLIM2, BCP vs control HepG2, RNA-seq
  logFC ABLIM2: 1.01
Gene ABLIM2, DEG direction, BCP vs control HepG2
  change ABLIM2: Up
Gene ACKR3, BCP vs control HepG2, RNA-seq
  logFC ACKR3: 0.6675
Gene ACKR3, DEG direction, BCP vs control HepG2
  change ACKR3: Up
Gene ACYP2, BCP vs control HepG2, RNA-seq
  logFC ACYP2: -0.6093
Gene ACYP2, DEG direction, BCP vs control HepG2
  change ACYP2: Down
Gene ADGRD1, BCP vs control HepG2, RNA-seq
  logFC ADGRD1: 0.8304
Gene ADGRD1, DEG direction, BCP vs control HepG2
  change ADGRD1: Up
Gene ADGRG6, BCP vs control HepG2, RNA-seq
  logFC ADGRG6: 0.7321
Gene ADGRG6, DEG direction, BCP vs control HepG2
  change ADGRG6: Up
Gene AKR1B1, BCP vs control HepG2, RNA-seq
  logFC AKR1B1: -0.8932
Gene AKR1B1, DEG direction, BCP vs control HepG2
  change AKR1B1: Down
Gene ALDH1L2, BCP vs control HepG2, RNA-seq
  logFC ALDH1L2: 0.8642
Gene ALDH1L2, DEG direction, BCP vs control HepG2
  change ALDH1L2: Up
Gene ALPI, BCP vs control HepG2, RNA-seq
  logFC ALPI: 0.9718
Gene ALPI, DEG direction, BCP vs control HepG2
  change ALPI: Up
Gene ALPL, BCP vs control HepG2, RNA-seq
  logFC ALPL: 1.081
Gene ALPL, DEG direction, BCP vs control HepG2
  change ALPL: Up
Gene ALYREF, BCP vs control HepG2, RNA-seq
  logFC ALYREF: -0.7733
Gene ALYREF, DEG direction, BCP vs control HepG2
  change ALYREF: Down
Gene AMPD2, BCP vs control HepG2, RNA-seq
  logFC AMPD2: -0.8008
Gene AMPD2, DEG direction, BCP vs control HepG2
  change AMPD2: Down
Gene ANKFN1, BCP vs control HepG2, RNA-seq
  logFC ANKFN1: -1.752
Gene ANKFN1, DEG direction, BCP vs control HepG2
  change ANKFN1: Down
Gene ANO2, BCP vs control HepG2, RNA-seq
  logFC ANO2: 1.524
Gene ANO2, DEG direction, BCP vs control HepG2
  change ANO2: Up
